# Measurements reported in patent US11723890B2, “Methods of treatment using an mTORC1 modulator” (Navitor Pharmaceuticals, Inc., priority 2019, dated 2023).
# Experiments:
# [1] = Nonclinical studies, observation of seizures; assay type: in vivo
# [2] = Example 2: single-dose pharmacokinetics in plasma and CSF; assay type: in vivo, human; conditions: healthy males, single oral 2400 mg
# Experimental: Pharmacokinetics Endpoints: The following PK parameters for compound A were determined in serum and CSF, as appropriate: • Cmax: Maximum compound A concentration determined directly from the concentration-time profile • Tmax: Time of maximum compound A concentration determined directly from the concentration-time profile • AUClast: Area under the concentration-time curve from pre-dose (time 0) to the time of the last quantifiable concentration (tlast) calculated using the linear-log trapezoidal rule • AUCinf: Area under the concentration-time curve from pre-dose (time 0) extrapolated to infinite time (AUClast+Clast/λz) calculated using the linear-log trapezoidal rule • AUC% extrap: Percentage of AUCinf that is due to extrapolation beyond tlast • λz: The terminal elimination rate constant determined by selection of at least 3 data points on the terminal phase of the concentration-time curve. • t1/2: Terminal elimination half-life calculated as: ln 2/λz • CL/F: Apparent body clearance calculated as: Dose/AUCinf • Vz/F: Apparent volume of distribution calculated as: Dose/(AUCinf*λz) • MRT: Mean residence time (of the unchanged drug in the systemic circulation) as: AUMC/AUC • RA (AUC): Accumulation CSF/plasma ratio calculated as the ratios of the AUCinf,ss at steady state and AUCτ,sd after single dosing calculated as: AUCτ,ss/AUCτ,sd • RA (Cmax): Accumulation CSF/plasma ratio calculated as ratio of Cmax,ss at steady state and Cmax,sd after single dosing calculated as: Cmax,ss/Cmax,sd • CSF compound A concentrations over time and the ratio compared with time-matched plasma concentrations were also evaluated Overall Study Design: […]
# Pharmacokinetic, Metabolomic, and Proteomic Variables: Blood and CSF samples for the PK, metabolomics, and proteomic analysis of compound A were collected at various time points and were processed and analyzed by a validated method for determining concentrations of compound A.
# [3] = tested on: rat; experiment: 14-day Q3D oral toxicology study in rats; assay type: in vivo
# Experimental: In rats administered 160, 500, or 1000 mg/kg PO every 3 days (Q3D) for 14 days (5 doses total), the no-observed-adverse-effect level (NOAEL) was 160 mg/kg.
# Factors Influencing Starting and Stopping Dose for compound A: The proposed starting dose of compound A (150 mg) was based on considering the NOAEL dose of compound A in the most sensitive species (160 mg/kg dosed Q3D for 14 days in rat), determining the human equivalent dose (HED) based on the body surface area difference between the two species (˜26 mg/kg, or ˜1560 mg for a 60 kg human), followed by applying a safety factor of 10 to yield the maximum recommended starting dose (MRSD). Based on the above considerations, the starting dose of compound A in the present study was 150 mg. Based on an integrated assessment of nonclinical findings with compound A, the planned maximum dose for compound A in the first-time-in-humans (FTIH) study was 2400 mg. Extrapolated on the basis of body surface area, the 2400 mg dose is equivalent to 247 mg/kg in rats and 123 mg/kg in monkeys. […] At 160 mg/kg in monkeys, the only effect was a slight decrease in heart rate (approximately 18%, or approximately 30 beats per minute, compared with vehicle).
# In addition, the present clinical study included frequent clinical laboratory tests.
# [4] = tested on: subjects with TRD; experiment: Example 1 Part B: safety and tolerability of a single dose in subjects with TRD; conditions: single oral 2400 mg
# Description: In Part B of the study, approximately 32 subjects were randomly assigned to double-blind treatment in one cohort. […] The single-blind placebo lead-in treatment was intended to facilitate screening out placebo responders.
# The study included standard safety and tolerability assessments—e.g., physical, neurological, and psychiatric examinations, vital signs, oral temperature, respiration rate, weight, 12-lead paper electrocardiograms (pECGs), dECGs, clinical laboratory tests, monitoring of adverse events (AEs) and concomitant medications, and, in Part A of the study, cardiovascular (CV) telemetry and safety EEGs.
# Placebo was administered orally as a solution.
# [5] = tested on: cynomolgus monkey; experiment: 14-day Q3D oral toxicology study in cynomolgus monkeys; conditions: in vivo, po, 2000 mg/kg
# Experimental: (§1) In cynomolgus monkeys administered 160, 500, or 2000 mg/kg PO Q3D for 14 days (5 doses total), the NOAEL was 160 mg/kg.
# (§2) Precautions related to cardiovascular safety in this clinical study included frequent measurement of vital signs (e.g., blood pressure, pulse, and body temperature) and frequent electrocardiograms (ECGs).
# [6] = as above; conditions: cynomolgus monkey, in vivo; cynomolgus monkeys; 160, 500 or 2000 mg/kg PO Q3D for 14 days (5 doses); read-out: no-observed-adverse-effect level (NOAEL)
# Experimental: as §1, §2
# [7] = Example 1 Part A: single ascending dose plasma pharmacokinetics; assay type: in vivo, human
# Experimental: The in-house period was 6 days/5 nights.
# Frequent PK sampling was included in the study to evaluate single-dose PK. Part B of the study included assessments designed to assess preliminary efficacy.
# Single ascending doses of compound A were assessed in healthy adult males and females in Part A of a two-part, randomized, double-blind, placebo-controlled, first-in-humans Study (see Example 1, Part A).
# [8] = tested on: nonhuman primate model of anxiolytic/depressive behavioral responses; experiment: Nonhuman primate model of anxiolytic/depressive behavioral responses; assay type: in vivo; conditions: versus ketamine
# Description: Compound A [(S)-2-amino-5,5-difluoro-4,4-dimethylpentanoic acid] is a novel, orally bioavailable, specific, small molecule that activates mTORC1 pathway signaling in the brain, including those centers responsible for mood.
smiles,measurement,setting,value
"CC(C)(C[C@H](N)C(=O)O)C(F)F [Compound A, (S)-2-amino-5,5-difluoro-4,4-dimethylpentanoic acid]",seizures,[1],seizures have not been observed
same,uptake into circulation and brain exposure,[2],rapid uptake of compound A into circulation with rapid brain exposure
same,human CSF levels,[2]; FIG. 8,consistent with rodent levels at the effective dose
same,half-life,"[2]; male, human, in vivo",600 to 780 min
same,human equivalent dose (HED) of rat NOAEL for a 60 kg human,"[3]; based on body surface area difference, 60 kg human",~1560 mg
same,"other findings, not considered adverse","[3]; rat, in vivo, po","slightly decreased lymphocyte, monocyte, and neutrophil counts"
same,findings at high doses,"[3]; rat, in vivo, po, 500 mg/kg",lymphoid atrophy and decreased leucocyte counts
same,adverse effects at 1000 mg/kg,"[3]; rat, in vivo, po, 1000 mg/kg","regenerative anemia in one male, considered likely an episode of gastrointestinal (GI) bleeding, and hepatocellular injury in one male"
same,"Vitals, labs, and ECG findings",[4],unremarkable
same,safety and tolerability,[4],"well tolerated, with no serious adverse events, and no discontinuations due to adverse events"
same,severity of adverse events,[4],mild-moderate
same,Deaths,[4]; n = 16,0
same,Discontinuations due to AE,[4]; n = 16,0
same,Serious AEs,[4]; n = 16,0
same,Subjects with at least 1 AE,[4]; n = 16,11 (68.8)
same,TEAE: Back pain,[4]; n = 16,1
same,TEAE: Dizziness,[4]; n = 16,2
same,TEAE: Dizziness postural,[4]; n = 16,1
same,TEAE: Dry mouth,[4]; n = 16,1
same,TEAE: Dyspepsia,[4]; n = 16,1
same,TEAE: Feeling abnormal,[4]; n = 16,1
same,TEAE: Flatulence,[4]; n = 16,1
same,TEAE: Frequent bowel movements,[4]; n = 16,1
same,TEAE: Headache,[4]; n = 16,2
same,TEAE: Hypertension,[4]; n = 16,1
same,TEAE: Hyperthyroidism,[4]; n = 16,1
same,TEAE: Myalgia,[4]; n = 16,1
same,TEAE: Nausea,[4]; n = 16,1
same,TEAE: Nipple pain,[4]; n = 16,1
same,TEAE: Orthostatic hypotension,[4]; n = 16,1
same,TEAE: Sensory disturbance,[4]; n = 16,1
same,TEAE: Skin abrasion,[4]; n = 16,1
same,TEAE: Somnolence,[4]; n = 16,4
same,TEAE: T-wave inversion,[4]; n = 16,1
same,Total number of TEAEs,[4]; n = 16,24
same,BPRS+ and CADSS scores,[4]; vs placebo,comparable as between the treatment groups
same,adverse effects at 2000 mg/kg,[5],"dehydration in one animal, likely secondary to vomiting, and increased aspartate aminotransferase (AST) in one animal"
same,NOAEL at 14 days,[6],160 mg/kg
same,CL/F and Vz/F estimates versus dose,[7]; 150 mg to 2400 mg,increased with dose
same,dose proportionality of Cmax and AUC∞,[7]; 150 mg to 2400 mg,slightly less than dose-proportional
same,Tmax,"[7]; both sexes, human, healthy volunteers, single oral 150-2400 mg, range among cohorts, post dose, read-out: Median Tmax",0.5 to 1.5 h
same,half-life,"[7]; both sexes, human, healthy volunteers, single oral 150-2400 mg, range among cohorts, read-out: terminal elimination half-life",762 to 954 min
same,pharmacological activity,[8],comparable to that of ketamine
